Test results published in paper PMC9607537, “Understanding the Antilymphoma Activity of Annona macroprophyllata Donn and Its Acyclic Terpenoids: In Vivo, In Vitro, and In Silico Studies” (Molecules, 2022).
Like-named read-outs stand apart in the source and are kept apart here.

Legend:
[1] = test system: Artemia salina larvae; experiment: Brine shrimp lethality (BSL) test; assay type: in vivo; settings: mortality at 24 h, mean ± SEM
Experimental: To obtain the LD50 of the thirteen compounds isolated by TLC, we performed the brine shrimp assay according to the procedure described by Meyer et al.. We exposed groups of 10 shrimp in brine to concentrations of 0.5, 1, 5, 10 µg mL^−1 of each product (P1-P13). The concentrations were reached by dissolving the compounds in 2 mL of ethanol, subsequently transferring to different flasks. After evaporating the solvent at room temperature, we introduced the BS and adjusted the volume with artificial seawater to 5 mL. We performed this test in triplicate for each compound.

[2] = test system: U-937 cells; experiment: cells; settings: read-out: CC50 (median cytotoxic concentration causing 50% cell death)
Experimental: The cell line U-937 was acquired (ATCC: CRL 1593.2, Middlesex, UK) and characterized as a type of diffuse monocytic NHL; for its propagation two million cells were used and seeded in RPMI 1640 medium (Roswell Park Memorial Institute) supplemented with 2 mM L-glutamine, 10% v/v fetal bovine serum (Thermo), 100 mM 1% sodium pyruvate, and 1% penicillin/streptomycin. The cells were kept in an atmosphere with a concentration of carbon dioxide (CO2) at 5% at 37 °C.
We evaluated the in vitro cytotoxic activity using the cell proliferation reagent WST-1, based on the cleavage of tetrazolium salts to formazan by the enzyme mitochondrial dehydrogenase. For cell proliferation, the Quick Cell Proliferation Kit II (Abcam, Cambridge, UK, Cat. No. ab65475) was used, 96-well plates were used and 2 × 10^5 cells per well were seeded in a final volume of 100 µL/well of culture medium. […] After 24 h, viability was assessed by the addition of 10 µL of WST-1 reagent and the cells were further incubated for 2 h at 37 °C and 5% CO2. Finally, the absorbance at 440 nm was measured using a microplate reader.

[3] = test system: lymph node growth in mice inoculated with U-937 cells; experiment: Antilymphoma activity in Balb/c mice inoculated with U-937 cells; assay type: in vivo; settings: oral, 9 days treatment, mean ± SEM, n = 6; for ED50 Female (inhibition of lymph node growth): female Balb/c mice inoculated with U-937 cells; for ED50 Male (inhibition of lymph node growth): male Balb/c mice inoculated with U-937 cells
Excerpt: We induced lymphoma following the method of Calzada et al.. We randomly formed fifteen groups of male mice and of female mice (n = 6). […] After cell inoculation, we observed all animals for the following 28 days, after which we orally administered treatments for 9 days. Over the following 28 days, we recorded the weight and survival of the animals. Finally, at day 65, we sacrificed the animals and removed and weighed the left and right axillary and inguinal lymph nodes.

[4] = in vivo; settings: female, Balb/c, mouse, in vivo, po
Experimental: (§1) Twenty-four female mice of the Balb/c strain were randomly used to form 8 groups (n = 3). […] The control group was administered with only the vehicle (Tween 80 at 2% in water) and for the compounds, doses of 500 and 1000 mg kg^−1 were administered. […] Subsequently, we sacrificed the animals and extracted the organs (stomach, intestines, spleen, liver, and kidneys) were extracted, reporting the pathological changes, if any.

[5] = test system: Balb/c mice; experiment: in vivo; settings: for TI Female (therapeutic index, LD50/ED50) / TI Male (therapeutic index, LD50/ED50): LD50 acute oral toxicity / ED50 antilymphoma activity; for TI Female (therapeutic index, LD50/ED50): female mice; for TI Male (therapeutic index, LD50/ED50): male mice; for OECD acute systemic toxicity category: acute oral toxicity, OECD guideline 423; for OECD acute systemic toxicity category / Mortality in acute oral toxicity test: mice; for Mortality in acute oral toxicity test: until end of study (14 days)
Experimental: as §1

[6] = test system: U-937 cell line; design: method as in PMID 34638856; settings: viability analysis by flow cytometry; cited from earlier work

Row | Compound | LD50 (median lethal dose causing 50% of A. salina death) ([1]; n = 3, listed as AF) [µg/mL] | LD50 (median lethal dose causing 50% of A. salina death) ([1]; n = 3, listed as FA (P10)) [µg/mL] | CC50 ([2]; Homo sapiens, U-937, 24 h) [µM] | ED50 Female (inhibition of lymph node growth) [3] [mg/kg] | ED50 Male (inhibition of lymph node growth) [3] [mg/kg] | LD50 at 14 days [4] [mg/kg] | TI Female (therapeutic index, LD50/ED50) [5] | TI Male (therapeutic index, LD50/ED50) [5] | OECD acute systemic toxicity category [5] | TI (therapeutic index) in both sexes [5] | Mortality in acute oral toxicity test ([5]; single oral dose) | LD50 (median lethal dose causing 50% of A. salina death) ([1]; n = 3) [µg/mL] | CC50 [6] [µM] | CC50 ([2]; U-937 cells, 24 h exposure, WST-1, mean ± SEM, n = 3) [µM] | LD50 (median lethal dose, acute oral toxicity) ([5]; female Balb/c mice, single oral dose, 14 days observation, n = 3) [mg/kg]
1 | CC(=O)OC/C=C(\C)CC/C=C(\C)CCC=C(C)C [FA, [(E,E)-3,7,11-trimethyldodeca-2,6,10-trienyl] acetate] | 5.82 ± 0.58 | 5.82 ± 0.58 | 275 ± 80 | 5.89 ± 0.39 | 5.09 ± 0.66 | > 1000 | 169.77 | 196.46 | category 4 (category 4, low risk > 300 and ≤2000 mg/kg) | > 100 | did not cause mortality |  |  |  | 
2 | CC(C)=CCC/C(C)=C/CC/C(C)=C/CC/C(C)=C/CO [Gg, (2E,6E,10E)-3,7,11,15-tetramethylhexadeca-2,6,10,14-tetraen-1-ol] |  |  | 395 ± 5 | 7.22 ± 0.51 | 6.98 ± 0.57 | 742.17 ± 0.34 | 138.5 |  | category 4 (category 4, low risk > 300 and ≤2000 mg/kg) | > 100 | caused death in the animals | 1.41 ± 0.42 |  |  | 
3 | CN(Cc1cnc2nc(N)nc(N)c2n1)c1ccc(C(=O)N[C@@H](CCC(=O)O)C(=O)O)cc1 [MTX, methotrexate, reference compound] |  |  | 243 ± 7 | 1.31 ± 0.34 | 0.99 ± 0.024 | 335 ± 0.39 |  |  |  |  |  |  | 0.5 |  | 
4 | (2E,7R,11R)-3,7,11,15-tetramethylhexadec-2-en-1-ol [PT] |  |  |  | 6.71 ± 0.31 | 5.83 ± 0.50 |  | 149.03 | 171.52 | category 4 (category 4, low risk > 300 and ≤2000 mg/kg) | > 100 | did not cause mortality | 3.03 ± 0.33 |  | 296 ± 70 | >1000
